# Test results published in patent US10709697B2, “Bis-amines, compositions, and uses related to CXCR4 inhibition” (Emory University, priority 2015, dated 2020).
# Molecular target: T1, CXCR4 (Homo sapiens, UniProt P61073)
# T1 construct: endogenous in cells; host or cells: MDA-MB-231
# Test: Primary binding affinity screening (competition with biotinylated TN14003)
# Conditions: effective concentration = lowest concentration with significant reduction of rhodamine fluorescence; MDA-MB-231 cells; tested at 1, 10, 100, 1000 nM
# Protocol: The compounds were initially screened with a binding affinity assay. […] MDA-MB-231 cells were pre-incubated with compounds at concentrations of 1, 10, 100, and 1000 nM, then incubated with biotinylated TN14003 and streptavidin-conjugated rhodamine to determine the binding efficiency of the new compounds to the CXCL12 binding domain of CXCR4. […] Thus, this screening is a semi-quantitative, first pass measure of the level of activity.
# For binding affinity assay, 2×10^4 MDA-MB-231 cells in 300 μL of cell culture medium were seeded in an 8-well slide chamber 2 days before the experiments were conducted. Various concentrations of different compounds (1, 10, 100, or 1000 nM) were added to the separate wells and incubated for 10 min at room temperature, and then the cells were fixed in 4% ice-cold paraformaldehyde. The cells were rehydrated in phosphate-buffered saline (PBS). The slides were subsequently incubated for 30 min at room temperature with 0.05 μg/mL biotinylated TN14003, washed three times with PBS, and incubated in streptavidin-rhodamine (1:150 dilution; Jackson ImmunoResearch Laboratories, West Grove, Pa.) for 30 min at room temperature. Finally, the slides were washed with PBS and mounted in an anti-fade mounting solution (Molecular Probes, Eugene, Oreg.), and the samples were analyzed on a Nikon Eclipse E800 microscope.
# T1 sequence (P61073 whole entry): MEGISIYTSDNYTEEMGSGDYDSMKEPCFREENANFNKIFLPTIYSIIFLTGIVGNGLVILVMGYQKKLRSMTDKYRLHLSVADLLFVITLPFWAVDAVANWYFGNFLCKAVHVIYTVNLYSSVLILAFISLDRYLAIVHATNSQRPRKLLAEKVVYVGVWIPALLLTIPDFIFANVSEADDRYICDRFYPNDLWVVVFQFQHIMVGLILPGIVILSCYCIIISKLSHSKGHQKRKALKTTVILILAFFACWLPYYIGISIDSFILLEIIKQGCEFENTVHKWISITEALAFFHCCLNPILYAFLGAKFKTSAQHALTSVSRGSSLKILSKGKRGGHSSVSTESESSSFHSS
row,EC [nM],SMILES
1,1,"c1cc(CN2CCCC2)nc(CN2CCCC2)c1 [IIa, 2,6-Bis(pyrrolidin-1-ylmethyl)pyridine]"
2,>1000,"CN(Cc1ccc(CN(C)Cc2cccnc2)cc1)Cc1cccnc1 [Io, N,N′-(1,4-Phenylenebis(methylene))bis(N-methyl-1-(pyridin-3-yl)methanamine)]"
3,1000,"CN(Cc1ccc(F)cc1)Cc1cccc(CN(C)Cc2ccc(F)cc2)n1 [IIj, N,N′-(Pyridine-2,6-diylbis(methylene))bis(1-(4-fluorophenyl)-N-methylmethanamine)]"
4,>1000,"CN(Cc1cccc(CN(C)Cc2ccccc2Cl)n1)Cc1ccccc1Cl [IIf, N,N′-(Pyridine-2,6-diylbis(methylene))bis(1-(2-chlorophenyl)-N-methylmethanamine)]"
5,>1000,"CN(Cc1ccncc1)Cc1cccc(CN(C)Cc2ccncc2)n1 [IIp, N,N′-(Pyridine-2,6-diylbis(methylene))bis(N-methyl-1-(pyridin-4-yl)methanamine)]"
6,>1000,"CN(Cc1ccncc1)Cc1ccc(CN(C)Cc2ccncc2)cc1 [Ip, N,N′-(1,4-Phenylenebis(methylene))bis(N-methyl-1-(pyridin-4-yl)methanamine)]"
7,>1000,"CCN(Cc1ccccc1)Cc1cccc(CN(CC)Cc2ccccc2)n1 [IIl, N,N′-(Pyridine-2,6-diylbis(methylene))bis(N-benzylethanamine)]"
8,>1000,"CN(Cc1ccc(CN(C)Cc2ccccc2F)cc1)Cc1ccccc1F [Ih, N,N′-(1,4-Phenylenebis(methylene))bis(1-(2-fluorophenyl)-N-methylmethanamine)]"
9,1000,"CN(Cc1ccc(CN(C)Cc2cccc(Cl)c2)cc1)Cc1cccc(Cl)c1 [Ig, N,N′-(1,4-Phenylenebis(methylene))bis(1-(3-chlorophenyl)-N-methylmethanamine)]"
10,>1000,"CN(Cc1ccc(CN(C)Cc2ccccc2Cl)cc1)Cc1ccccc1Cl [If, N,N′-(1,4-Phenylenebis(methylene))bis(1-(2-chlorophenyl)-N-methylmethanamine)]"
11,>1000,"CN(Cc1ccc(CN(C)Cc2cccc(F)c2)cc1)Cc1cccc(F)c1 [Ii, N,N′-(1,4-Phenylenebis(methylene))bis(1-(3-fluorophenyl)-N-methylmethanamine)]"
12,1000,"c1cc(CN2CCCC2)ccc1CN1CCCC1 [Ia, 1,4-Bis(pyrrolidin-1-ylmethyl)benzene]"
13,1000,"CCN(Cc1ccccc1)Cc1ccc(CN(CC)Cc2ccccc2)cc1 [Il, N,N′-(1,4-Phenylenebis(methylene))bis(N-benzylethanamine)]"
14,>1000,"CN(Cc1ccc(CN(C)Cc2ccccn2)cc1)Cc1ccccn1 [In, N,N′-(1,4-Phenylenebis(methylene))bis(N-methyl-1-(pyridin-2-yl)methanamine)]"
15,>1000,"CN(Cc1cccnc1)Cc1cccc(CN(C)Cc2cccnc2)n1 [IIo, N,N′-(Pyridine-2,6-diylbis(methylene))bis(N-methyl-1-(pyridin-3-yl)methanamine)]"
16,>1000,"CN(Cc1cccc(F)c1)Cc1cccc(CN(C)Cc2cccc(F)c2)n1 [IIi, N,N′-(Pyridine-2,6-diylbis(methylene))bis(1-(3-fluorophenyl)-N-methylmethanamine)]"
17,1000,"c1ccc(CN(Cc2ccc(CN(Cc3ccccc3)CC3CC3)cc2)CC2CC2)cc1 [Im, N,N′-(1,4-Phenylenebis(methylene))bis(N-benzyl-1-cyclopropylmethanamine)]"
18,1000,"CN(Cc1cccc(CN(C)Cc2ccccc2F)n1)Cc1ccccc1F [IIh, N,N′-(Pyridine-2,6-diylbis(methylene))bis(1-(2-fluorophenyl)-N-methylmethanamine)]"
